In US4720543A, “1a-7-substituted derivatives of mitomycin and uses thereof” (priority 1985, dated 1988):
Values joined by “and” are separate entries in the source; they are usually repeats but may differ in a detail not shown here. Equal values may be shown once. “Also recorded” adds a separate entry of the source. Read-outs that look alike come from different tables or passages of the source.

What was measured:
[1] = test system: P388 leukemia; assay: murine P388 leukemia antitumor activity; format: in vivo
Protocol: The murine P388 leukemia system, maintained intraperitoneally in female DBA/2 mice, was used to evaluate antitumor activity.
The P388 antileukemic activity of the test compound (M-TAG) was assessed by mean survival days, percentage increased life span or %ILS, and number of survivors after 45 days. The %ILS was calculated as follows:
%ILS=(T-C)/C×100 where T is the mean survival days of the treated mice and C is the mean survival days of the untreated mice

[2] = test system: E. coli WP2s (λ); settings: for Induction of prophage, PFU/DISH: 24 hours
[3] = test system: human bone marrow cells; assay: human bone marrow CFU-C assay
Protocol: (§2) The human bone marrow CFU-C assay measures human bone marrow cells committed to granulocyte-macrophage differentiation. This in vitro assay serves as a model for predicting the relative toxicity of an experimental drug on the granulocytic series of the bone marrow. […] Both drugs were dissolved in 0.5% DMSO, and nucleated human bone marrow cells were exposed in vitro (for 90 minutes at 37° C.) to varying concentrations of each drug. The cells were then plated in triplicate in 3% agar for the CFU-C assay, using GCT, (Giant Cell Tumor) extract (Gibco, Grand Island, N.Y.) as colony-stimulating factor.

[4] = human bone marrow CFU-C assay; settings: human, bone marrow cells
Protocol: as §2

[5] = test system: B16 melanoma; assay: murine B16 melanoma antitumor activity
Text: Activity against the murine B16 melanoma is currently being determined.

[6] = toxic single doses in normal CD2F1 mice; settings: for Deaths due to drug toxicity: up to 45 days
Protocol: Drug was administered intraperitoneally (i.p.) in a volume of 0.1 ml per 10 grams body weight.

[7] = test system: peripheral leukocyte (WBC); assay: effects on peripheral leukocyte (WBC) count; format: in vivo, mice; settings: LD10-range dose i.p., days 3, 4, 5, 6 and 10
Protocol: Comparative studies were performed with M-TAG and mitomycin C. Drug was dissolved in absolute ethanol, and then adjusted to a final concentration of 8% ethanol-92% sterile water. Blood samples obtained were diluted in 9.98 ml of Isoton (a neutral isotonic buffer solution) and counted in a Coulter counter after lysis with Zapoglobin (an enzyme solution which lyses red blood cells but not white blood cells). WBC counts are expressed as a percentage of values from control mice receiving drug vehicle only.

[8] = test system: W3100 (E. coli); assay: antibiotic activity, bacterial growth inhibition in culture; format: cell-based
Protocol: (§1) Bacteria were grown in a standard growth culture at pH 7.2. After the cultures were incubated at 37° C. overnight and diluted into fresh medium, controls and the test antibiotics dissolved in 0.3% hydroxy propylcellulose (HPC) were added at various concentrations and then reincubated overnight. The measure of antibiotic activity was determined by the amount of bacterial growth inhibition as shown by measurement of the optical density at 660 nm.

[9] = test system: TA100 (Salmonella Sp.); assay: as above; format: cell-based
Protocol: as §1

[10] = test system: Klebsiella Pneumonia; assay: as above; format: cell-based
Protocol: as §1

[11] = approximate LD10 dose (M-TAG 250 mg/kg; mitomycin C 4 mg/kg), day one

For `CO[C@@]12[C@H](COC(N)=O)C3=C(C(=O)C(C)=C(N)C3=O)N1C[C@H]1[C@@H]2N1C(=S)N[C@@H]1O[C@H](COC(C)=O)[C@@H](OC(C)=O)[C@H](OC(C)=O)[C@H]1NC(C)=O` [M-TAG, 1a(N-2-acetamido-3,4,6-tri-O-acetyl-2-deoxy-D-glucopyranosylthiocarbamoyl)-mitomycin C], the “overall survivals, M-TAG versus mitomycin C at LD10 dose (in words)” value ([1]; LD10 dose) was “no statistical difference in the overall survivals”, the “% ILS” value [1, 11] was 85% and the “Mean Survival” value [1, 11] was 22 days. For the same molecule, the “antitumor activity against murine P388 leukemia (in words)” value ([1]; mouse, in vivo) was “equivalent to that achieved with the parent mitomycin C”, the “maximum increase of phage titer over control” value [2] was 50-100% and the “Induction of prophage, PFU/DISH” value ([2]; 0.005 ug/ml) was 148.5 PFU/DISH. The “Induction of prophage, PFU/DISH” value ([2]; 0.020 ug/ml) was 152.5 PFU/DISH, the “Induction of prophage, PFU/DISH” value ([2]; 0.03125 ug/ml) was 591.5 PFU/DISH and the “Induction of prophage, PFU/DISH” value ([2]; 0.125 ug/ml) was 799.5 PFU/DISH. For the same molecule, the “Induction of prophage, PFU/DISH” value ([2]; 0.500 ug/ml) was 2535.0 PFU/DISH, the “Induction of prophage, PFU/DISH” value ([2]; 2.000 ug/ml) was 5395.0 PFU/DISH and the “Induction of prophage, PFU/DISH” value ([2]; 3.125 ug/ml) was 3516.5 PFU/DISH. For the same molecule, the “Induction of prophage, PFU/DISH” value ([2]; 12.500 ug/ml) was 461.5 PFU/DISH, the “Induction of prophage, PFU/DISH” value ([2]; 50.000 ug/ml) was 169.0 PFU/DISH and the “Induction of prophage, PFU/DISH” value ([2]; 200.000 ug/ml) was 14.5 PFU/DISH. For the same molecule, the “bone marrow toxicity compared to parent mitomycin-C (in words)” value [3] was “reduced bone marrow toxicity”, the activity at 1.5 h, 100 µM [4] was 66% and the activity at 1.5 h, 500 µM [4] was 43%. For the same molecule, the activity at 1.5 h, 1000 µM [4] was less than 20%, the “mice alive on day 20” value ([5]; M-TAG 250 mg/kg or mitomycin C 4 mg/kg, i.p. day 1) was 6 out of 10 and the “mice alive on day 10” value ([5]; M-TAG 250 mg/kg or mitomycin C 4 mg/kg, i.p. day 1, all vehicle-control mice died) was “All”. The “antitumor activity against murine B16 melanoma (in words)” value ([5]; mouse, in vivo) was “significant antitumor activity”, the “Deaths due to drug toxicity” value ([6]; 250 mg/kg, single i.p. dose) was 0/10 and the “Deaths due to drug toxicity” value ([6]; 275 mg/kg, single i.p. dose) was 1/10. The “Deaths due to drug toxicity” value ([6]; 300 mg/kg, single i.p. dose) was 3/10, the “difference in LD10 dose in mice relative to mitomycin C” value ([6]; molar basis) was 30-40 fold and the “approximate LD10 dose (molar)” value ([6]; single i.p. dose) was roughly 346 µmol/kg. The LD10 dose ([6]; single i.p. dose toxic to 10% of normal mice) was 275 mg/kg and 250 to 275 mg/kg and ~250 mg/kg, the “WBC depression / myelotoxicity (in words)” value [7] was “no significant depression in WBC counts at all days tested; also recorded: no significant myelotoxicity as measured by WBC depression” and the “optical density at 660 nm (figure in parentheses)” value (from here on “optical density at 660 nm”) ([8]; 0.04 mcg/ml) was 0.48. The “optical density at 660 nm” value ([8]; 0.4 mcg/ml) was 0.51, the “optical density at 660 nm” value ([8]; 4.0 mcg/ml) was 0.30 and the “optical density at 660 nm” value ([8]; 40 mcg/ml) was 0.07. For the same molecule, the “optical density at 660 nm” value ([8]; 400 mcg/ml) was 0.04, the inhibition at 0.04 µg/mL ([8]; Escherichia coli, 0.04 mcg/ml, 37° C. overnight, read-out: amount of bacterial growth inhibition (first figure)) was 33% and the inhibition at 0.4 µg/mL ([8]; Escherichia coli, 0.4 mcg/ml, 37° C. overnight, read-out: amount of bacterial growth inhibition (first figure)) was 31%. For the same molecule, the inhibition at 4 µg/mL ([8]; Escherichia coli, 4.0 mcg/ml, 37° C. overnight, read-out: amount of bacterial growth inhibition (first figure)) was 50%, the inhibition at 40 µg/mL ([8]; Escherichia coli, 40 mcg/ml, 37° C. overnight, read-out: amount of bacterial growth inhibition (first figure)) was 86% and the inhibition at 400 µg/mL ([8]; Escherichia coli, 400 mcg/ml, 37° C. overnight, read-out: amount of bacterial growth inhibition (first figure)) was 92%. The “optical density at 660 nm” value ([9]; 0.04 mcg/ml) was 0.34, the “optical density at 660 nm” value ([9]; 0.4 mcg/ml) was 0.11 and the “optical density at 660 nm” value ([9]; 4.0 mcg/ml) was 0.97. For the same molecule, the “optical density at 660 nm” value ([9]; 40 mcg/ml) was 0.97, the “optical density at 660 nm” value ([9]; 400 mcg/ml) was 0.02 and the inhibition at 0.04 µg/mL ([9]; Salmonella, 0.04 mcg/ml, 37° C. overnight, read-out: amount of bacterial growth inhibition (first figure)) was 46%. For the same molecule, the inhibition at 0.4 µg/mL ([9]; Salmonella, 0.4 mcg/ml, 37° C. overnight, read-out: amount of bacterial growth inhibition (first figure)) was 78%, the inhibition at 4 µg/mL ([9]; Salmonella, 4.0 mcg/ml, 37° C. overnight, read-out: amount of bacterial growth inhibition (first figure)) was 80% and the inhibition at 40 µg/mL ([9]; Salmonella, 40 mcg/ml, 37° C. overnight, read-out: amount of bacterial growth inhibition (first figure)) was 80%. The inhibition at 400 µg/mL ([9]; Salmonella, 400 mcg/ml, 37° C. overnight, read-out: amount of bacterial growth inhibition (first figure)) was 95%, the “optical density at 660 nm” value ([10]; 0.04 mcg/ml) was 0.66 and the “optical density at 660 nm” value ([10]; 0.4 mcg/ml) was 0.62.
